From patent US7135292B2, “Analysis and modification of gene expression in marine invertebrate cells” (Harbor Branch Oceanographic Institution, Inc., priority 2002, dated 2006)

Test system: TIB-155 murine lymphocytes
Assay: Microarray analysis of gene expression, PHA-treated vs untreated murine lymphocytes
Type: cell-based
Conditions: significant regulation, opposite to sponge cells
Description: Murine Cells. Following the same experimental design as described for sponge cells, TIB-155 murine lymphocytes were cultured in the American Type Culture Collection-specified growth medium (RPMI 1640 with 0.05 mM 2-mercaptoethanol and 10% fetal bovine serum).

Q: With phytohemagglutinin [PHA] as the substance, how does the “COUP transcription factor regulation in murine cells” value read?
A: higher signal in the PHA-treated murine cells
